Measured values from US7635572B2, “Methods for conducting assays for enzyme activity on protein microarrays” (Life Technologies Corporation, priority 2004, dated 2009).

Assays:
Assay in all cases: Further analysis of a plurality of inhibitors and a plurality of kinases on microarray (Example IX, Table 5);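 further: inhibition of each kinase by the inhibitors is given as a qualitative level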;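 on Inhibition level, PRKCI: level 0 none or unclear Level 1 marginal Level 2 substantial inhibition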;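 on Inhibition level, TBK1: level 0 no or unclear inhibition to Level 2 substantial inhibition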
Format in all cases: biochemical
[1] = target: plurality of kinases (Table 5) (Homo sapiens, UniProt O75716); conditions: plate C3
plurality of kinases (Table 5) (Homo sapiens, UniProt O75716), sequence (O75716 whole entry): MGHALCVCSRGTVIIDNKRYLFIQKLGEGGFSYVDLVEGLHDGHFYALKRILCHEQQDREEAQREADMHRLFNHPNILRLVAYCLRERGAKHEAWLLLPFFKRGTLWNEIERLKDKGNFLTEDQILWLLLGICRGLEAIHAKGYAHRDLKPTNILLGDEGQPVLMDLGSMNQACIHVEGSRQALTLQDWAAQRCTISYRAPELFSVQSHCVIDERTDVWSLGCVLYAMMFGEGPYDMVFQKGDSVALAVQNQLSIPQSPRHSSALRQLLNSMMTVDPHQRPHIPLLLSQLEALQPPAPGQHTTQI

[2] = target: T1, plurality of kinases (Table 5) (Homo sapiens, UniProt P41743); conditions: plate A2
T1 sequence (P41743 1-596): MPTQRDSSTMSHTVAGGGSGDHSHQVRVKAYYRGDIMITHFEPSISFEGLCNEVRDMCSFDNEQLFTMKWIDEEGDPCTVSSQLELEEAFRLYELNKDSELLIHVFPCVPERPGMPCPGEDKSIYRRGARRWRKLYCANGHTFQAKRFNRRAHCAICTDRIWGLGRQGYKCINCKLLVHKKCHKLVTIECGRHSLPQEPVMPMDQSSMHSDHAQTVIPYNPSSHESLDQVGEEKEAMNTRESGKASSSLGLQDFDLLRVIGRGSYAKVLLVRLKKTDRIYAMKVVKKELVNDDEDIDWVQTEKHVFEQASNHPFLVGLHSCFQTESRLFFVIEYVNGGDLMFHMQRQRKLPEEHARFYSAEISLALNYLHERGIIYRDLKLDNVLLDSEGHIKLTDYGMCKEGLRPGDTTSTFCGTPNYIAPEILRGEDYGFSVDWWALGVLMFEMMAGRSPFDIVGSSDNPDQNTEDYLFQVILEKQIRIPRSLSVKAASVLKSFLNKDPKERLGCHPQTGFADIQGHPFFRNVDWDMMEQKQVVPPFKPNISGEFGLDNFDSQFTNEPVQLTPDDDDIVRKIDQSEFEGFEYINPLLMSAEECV

[3] = target: T2, plurality of kinases (Table 5) (Homo sapiens, UniProt P54753); conditions: plate B5
T2 sequence (P54753 34-998): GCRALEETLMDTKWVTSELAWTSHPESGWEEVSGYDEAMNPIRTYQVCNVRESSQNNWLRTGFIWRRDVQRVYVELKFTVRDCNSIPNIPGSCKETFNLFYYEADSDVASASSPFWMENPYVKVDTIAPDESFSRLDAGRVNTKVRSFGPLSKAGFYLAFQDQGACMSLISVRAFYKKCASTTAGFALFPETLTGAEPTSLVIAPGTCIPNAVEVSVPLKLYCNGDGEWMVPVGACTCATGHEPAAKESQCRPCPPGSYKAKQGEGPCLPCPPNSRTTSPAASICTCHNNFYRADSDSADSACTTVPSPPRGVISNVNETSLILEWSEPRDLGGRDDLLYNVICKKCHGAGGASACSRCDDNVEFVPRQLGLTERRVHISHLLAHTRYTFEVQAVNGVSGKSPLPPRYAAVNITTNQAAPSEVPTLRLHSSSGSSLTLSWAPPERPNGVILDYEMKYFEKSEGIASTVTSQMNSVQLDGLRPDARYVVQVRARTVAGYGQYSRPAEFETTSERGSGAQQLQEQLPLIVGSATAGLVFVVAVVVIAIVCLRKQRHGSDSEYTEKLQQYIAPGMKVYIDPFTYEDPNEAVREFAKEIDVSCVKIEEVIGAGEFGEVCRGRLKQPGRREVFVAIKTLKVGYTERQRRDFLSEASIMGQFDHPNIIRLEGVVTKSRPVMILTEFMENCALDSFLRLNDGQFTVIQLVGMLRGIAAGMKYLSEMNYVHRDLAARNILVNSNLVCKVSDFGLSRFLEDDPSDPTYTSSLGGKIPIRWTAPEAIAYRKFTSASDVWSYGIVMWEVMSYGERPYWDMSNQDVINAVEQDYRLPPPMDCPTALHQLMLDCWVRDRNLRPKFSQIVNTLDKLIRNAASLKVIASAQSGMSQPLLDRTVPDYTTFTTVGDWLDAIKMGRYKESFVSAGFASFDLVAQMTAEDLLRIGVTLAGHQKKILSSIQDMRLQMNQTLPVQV

[4] = target: plurality of kinases (Table 5) (Homo sapiens, UniProt Q7KZI7); conditions: plate C4; inhibitor 100 uM
plurality of kinases (Table 5) (Homo sapiens, UniProt Q7KZI7), sequence (Q7KZI7 whole entry): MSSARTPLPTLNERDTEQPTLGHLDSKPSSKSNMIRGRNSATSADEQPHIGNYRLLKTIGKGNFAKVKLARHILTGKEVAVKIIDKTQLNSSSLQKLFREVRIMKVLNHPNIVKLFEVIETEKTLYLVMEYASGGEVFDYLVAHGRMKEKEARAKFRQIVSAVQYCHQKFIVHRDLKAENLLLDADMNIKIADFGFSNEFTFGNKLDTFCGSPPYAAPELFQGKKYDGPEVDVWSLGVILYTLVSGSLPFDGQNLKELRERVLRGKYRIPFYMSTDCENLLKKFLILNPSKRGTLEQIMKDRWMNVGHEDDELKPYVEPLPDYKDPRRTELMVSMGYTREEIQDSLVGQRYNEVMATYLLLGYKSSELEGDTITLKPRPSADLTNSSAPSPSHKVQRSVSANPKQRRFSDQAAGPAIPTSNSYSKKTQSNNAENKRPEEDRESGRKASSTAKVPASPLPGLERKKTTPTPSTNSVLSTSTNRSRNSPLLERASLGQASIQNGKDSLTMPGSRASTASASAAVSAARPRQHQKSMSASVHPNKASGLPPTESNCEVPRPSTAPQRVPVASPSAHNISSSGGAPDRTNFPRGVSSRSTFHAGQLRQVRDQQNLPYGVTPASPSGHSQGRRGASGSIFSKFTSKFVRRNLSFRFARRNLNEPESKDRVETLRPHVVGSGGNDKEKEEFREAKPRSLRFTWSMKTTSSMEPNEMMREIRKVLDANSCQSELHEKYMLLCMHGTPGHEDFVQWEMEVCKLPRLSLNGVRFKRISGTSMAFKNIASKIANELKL

[5] = target: T3, plurality of kinases (Table 5) (Homo sapiens, UniProt Q9UHD2); conditions: plate G1; inhibitor 100 uM
T3 sequence (Q9UHD2 1-729): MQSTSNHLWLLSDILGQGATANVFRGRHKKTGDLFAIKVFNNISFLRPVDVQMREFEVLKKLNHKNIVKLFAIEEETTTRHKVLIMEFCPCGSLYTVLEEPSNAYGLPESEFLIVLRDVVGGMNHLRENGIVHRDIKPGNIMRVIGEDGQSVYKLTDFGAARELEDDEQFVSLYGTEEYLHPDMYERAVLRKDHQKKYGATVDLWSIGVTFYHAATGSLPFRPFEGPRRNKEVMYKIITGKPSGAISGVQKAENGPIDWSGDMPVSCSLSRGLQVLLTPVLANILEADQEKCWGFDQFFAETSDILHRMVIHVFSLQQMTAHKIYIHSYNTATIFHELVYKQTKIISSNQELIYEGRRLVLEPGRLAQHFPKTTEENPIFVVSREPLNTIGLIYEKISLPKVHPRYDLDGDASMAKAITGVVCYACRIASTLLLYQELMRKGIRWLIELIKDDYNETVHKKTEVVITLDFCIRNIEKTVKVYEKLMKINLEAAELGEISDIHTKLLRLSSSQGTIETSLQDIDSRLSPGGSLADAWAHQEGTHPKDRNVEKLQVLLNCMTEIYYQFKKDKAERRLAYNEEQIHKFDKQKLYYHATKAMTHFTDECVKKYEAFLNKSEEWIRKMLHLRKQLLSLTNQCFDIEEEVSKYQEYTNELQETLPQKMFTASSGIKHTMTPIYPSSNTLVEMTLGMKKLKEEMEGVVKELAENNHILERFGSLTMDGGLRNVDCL

Inhibition level, MARK2 [4]	Inhibition level, STK16 ([1]; Genistein <3.7 mM)	Inhibition level, PRKCI ([2]; Genistein <3.7 mM)	Inhibition level, EPHB3 ([3]; Genistein, conc. not given)	Inhibition level, STK16 ([1]; Ro-31-8220 90 uM)	Inhibition level, PRKCI ([2]; Ro-31-8220 90 uM)	Inhibition level, EPHB3 ([3]; Ro-31-8220, conc. not given)	Structure (SMILES)	Inhibition level, STK16 ([1]; inhibitor 100 uM)	Inhibition level, PRKCI ([2]; inhibitor 100 uM)	Inhibition level, EPHB3 ([3]; inhibitor 100 uM)	Inhibition level, TBK1 [5]	Inhibition level, STK16 ([1]; Staurosporine 21.5 uM)	Inhibition level, EPHB3 ([3]; Staurosporine, conc. not given)
2	0	0	0	–	–	–	O=c1c(-c2ccc(O)cc2)coc2cc(O)cc(O)c12 [Genistein]	0	2	2	2	–	–
2	–	–	–	–	–	–	O=S(=O)(NCCNC/C=C/c1ccc(Br)cc1)c1cccc2cnccc12 [H-89]	2	2	1	2	–	–
2	–	–	–	–	–	–	CC(C)(C)n1nc(-c2ccc(Cl)cc2)c2c(N)ncnc21 [PP2]	2	1	2	1	–	–
–	–	–	–	–	–	–	O=c1c(O)c(-c2ccc(O)c(O)c2)oc2cc(O)cc(O)c12 [Quercetin]	0	0	2	0	–	–
2	–	–	–	2	2	0	Cn1cc(C2=C(c3cn(CCCSC(=N)N)c4ccccc34)C(=O)NC2=O)c2ccccc21 [Ro-31-8220]	1	0	2	2	–	–
–	–	–	–	–	–	–	CN[C@@H]1C[C@H]2O[C@@](C)([C@@H]1OC)n1c3ccccc3c3c4c(c5c6ccccc6n2c5c31)C(=O)NC4 [Staurosporine]	–	–	–	–	2	0

Structure (SMILES)	Inhibition level, MARK2 [4]	Inhibition level, STK16 ([1]; Genistein <3.7 mM)	Inhibition level, PRKCI ([2]; Genistein <3.7 mM)	Inhibition level, EPHB3 ([3]; Genistein, conc. not given)	Inhibition level, STK16 ([1]; Ro-31-8220 90 uM)	Inhibition level, PRKCI ([2]; Ro-31-8220 90 uM)	Inhibition level, EPHB3 ([3]; Ro-31-8220, conc. not given)	Inhibition level, STK16 ([1]; inhibitor 100 uM)	Inhibition level, PRKCI ([2]; inhibitor 100 uM)	Inhibition level, EPHB3 ([3]; inhibitor 100 uM)	Inhibition level, TBK1 [5]	Inhibition level, STK16 ([1]; Staurosporine 21.5 uM)	Inhibition level, EPHB3 ([3]; Staurosporine, conc. not given)
N#C/C(=C/c1ccc(O)c(O)c1)C(=O)NCc1ccccc1 [AG 490]	2	–	–	–	–	–	–	0	2	2	2	–	–
COc1cc2ncnc(Nc3cccc(Cl)c3)c2cc1OC [AG 1478]	2	–	–	–	–	–	–	0	0	2	2	–	–
CC(=O)c1c(O)c(C)c(O)c(Cc2c(O)c3c(c(C(=O)/C=C/c4ccccc4)c2O)OC(C)(C)C=C3)c1O [Rottlerin (Mallotoxin)]	2	–	–	–	–	–	–	0	2	2	1	–	–
